Reference: US10709724B2, “Methods of treating mitochondrial dysfunction” (Ecole Polytechnique Federale de Lausanne (EPFL), priority 2011, dated 2020)
Entries after “also recorded” stand apart in the source; their conditions may differ.

Tests used:
C2C12 myotubes = assay: Oxygen consumption in cultured C2C12 myotubes; assay type: cell-based
Experimental: Oxygen Consumption in Cultured Cells. Cellular O2 consumption was measured using a Seahorse bioscience XF24 analyzer with […] biological replicates per condition, in 24 well plates at 37° C., exactly as described (Canto et al., 2009). C2C12 were infected with an adenovirus encoding for FLAG-HA-PGC-1 and either scramble or SIRT1 shRNAs 48 h previous to O2 consumption measurements. Then myotubes were treated with 1 μM PJ34 for 48 h. In order to measure the contribution of fatty acid oxidation to global O2 consumption, total cellular O2 consumption was measured for 6 successive 2 min measurements at 5 min intervals. Then, 50 μl of etomoxir (1 M; Calbiochem, San Diego, Calif., USA) were added and, after […], 6 successive 2 min measurements were performed at 5 min intervals. The remaining O2 consumption was attributed to non-lipid substrates, while the difference with the initial O2 consumption values was considered due to fatty acid oxidation.

C. elegans = assay: Worm respiration assay (Seahorse XF24); assay type: in vivo; conditions: day 3 adult worms
Experimental: Worm Respiration Assays Oxygen consumption was measured using the Seahorse XF24 equipment (Seahorse Bioscience Inc., North Billerica, Mass.) as described in Yamamoto et al. Typically, 200 animals per conditions were recovered from NGM plates with M9 medium, washed three times in 2 mLM9 to eliminate residual bacteria, and resuspended in 500 μL M9 medium. Worms were transferred in 24-well standard Seahorse plates (#100777-004) (50 worms per well) and oxygen consumption was measured 6 times. Respiration rates were normalized to the number of worms in each individual well. NAD measurement by HPLC For NAD+ quantification, approximately 1000 worms were collected in M9 buffer, washed five times to remove residual bacteria and flash-frozen in liquid nitrogen and stored at −80° C. until analysis. Extraction was started by adding 250 μl of 1.6M perchloric acid on frozen samples, followed by extensive homogenization in a Qiagen tissuelyser, and centrifugation at 20.000 g for 15 min. The supernatant was recovered and neutralized with a 3M potassium carbonate solution. After centrifugation, 100 μl of supernatant was filtered and used for NAD measurement using an HPLC system (Agilent) with a Supelco LC-18-T column (Sigma), as described in Yoshino et al. (Yoshino, K. F. Mills, M. J. Yoon, S. Imai, Nicotinamide Mononucleotide, a Key NAD(+) Intermediate, Treats the Pathophysiology of Diet- and Age-Induced Diabetes in Mice. Cell Metab 14, 528 (2011)).

HEK293T cells = assay: Mitochondrial NAD+ in HEK293T cells; assay type: cell-based, human; conditions: 0.5 mM, 4 hrs
Experimental: NAD^+ NAM Determination. NAD^+ levels in cultured cells were determined using a commercial kit (Enzychrom™, BioAssays Systems, CA). For tissue samples NAD^+ and NAM levels were determined as described in (Sauve et al., 2005). In brief, to a weighed aliquot of frozen pulverized tissue we added as standards, ^18O-NAD^+ (typically 2.00 nmol) and ^18O-NAM (typically 2.00 nmol). 70 L of ice-cold 7% perchloric acid was then added and the sample was vortexed and sonicated three times, then centrifuged. Clear supernatant was removed and neutralized by additions of 3 M NaOH and 1 M phosphate buffer (pH=9), then centrifuged. Clear supernatant was injected onto HPLC C-18 column with 20 mM ammonium acetate eluent to separate NAD^+ and NAM from other cellular components, NAD^+ and NAM peaks (260 nm absorbance) were collected. Collections were lyophilized to dryness and subjected to MALDI-TOF analysis. For NAD^+ measurement, ratio of intensities for m/z=664 and 666 peaks, corresponding to ^16O- and ^18O-NAD^+ isotopomers, was multiplied by 2.00 nmol and then divided by tissue weight to determine NAD+ concentration in the sample. […] Other NAD metabolites were determined as previously described (Yang and Sauve, Synthesis of nictotinamide riboside and derivatives: effective agents for increasing nictinomide adenine dinucleotide concentrations in mammalian cells. J Med Chem 50, 6458-6461 (2006)).

C57Bl/6J mice = assay: Hyperinsulinemic-euglycemic clamp in CD and CD-NR mice; assay type: in vivo; conditions: 4 weeks of treatment
Experimental: Hyperinsulinemic-euglycemic clamps were performed as described (Lagouge et al., 2006).

SMILES | O2 consumption rates (C2C12 myotubes; 1 μM PJ34, 48 h) | O2 consumption with SIRT1 knock-down (C2C12 myotubes; SIRT1 shRNA) | substrate contribution to the increase in O2 consumption (C2C12 myotubes; etomoxir) | oxygen consumption (respiration) (C. elegans) | mitochondrial NAD+ levels in cultured cells (HEK293T cells) | glucose infusion rate to maintain euglycemia, vs vehicle (C57Bl/6J mice) | insulin-induced muscle glucose uptake (C57Bl/6J mice)
CN(C)CC(=O)Nc1ccc2[nH]c(=O)c3ccccc3c2c1 [PJ34] | enhanced oxidative metabolism | largely blunted | combination of enhanced oxidation of lipid and non-lipid substrates |  |  |  | 
NC(=O)c1ccc[n+]([C@@H]2O[C@H](CO)[C@@H](O)[C@H]2O)c1 [NR, nicotinamide riboside] |  |  |  | increased respiration; also recorded: Oxygen consumption was increased | mitochondrial NAD^+ levels were enhanced | ~2 fold | very marked increase
